# Where two headings read alike, the source gives them in different places.
# Tests used:
# [1] = tested on: P. aeruginosa DSM-24600 (ESBL); experiment: MIC microdilution, P. aeruginosa DSM-24600 (ESBL); assay type: cell-based, Pseudomonas aeruginosa; settings: Pseudomonas aeruginosa, DSM24600
# Experimental: (§1) Indicator strains used in susceptibility assays were either part of our strain collection or purchased from the German Collection of Microorgansims and Cell Cultures (DSMZ) or from the American Type Culture Collection (ATCC). E. coli strain WT and corresponding E. coli mutants were kindly provided by Prof. Dr. P. Heisig, Pharmaceutical Biology and Microbiology, University of Hamburg. E. coli strains JW0401-1 (WT) and Δtsx were obtained from the CGSC collection.
# (§2) MIC values were determined in standardized microdilution assays. Overnight cultures were diluted in the appropriate growth medium to achieve an inoculum of 10^4-10^6 cfu/mL. Yeasts were grown in Myc medium (1% phytone peptone, 1% glucose, 50 mM HEPES, pH 7.0), S. pneumonia and Enterococcus spp. in tryptic soy broth (TSB: 1.7% peptone casein, 0.3% peptone soymeal, 0.25% glucose, 0.5% NaCl, 0.25% K2HPO4; pH 7.3); M. smegmatis in Middlebrook 7H9 medium supplemented with 10% Middlebrook ADC enrichment and 2 ml/I glycerol). All other listed bacteria were grown in Müller-Hinton broth (0.2% beef infusion solids, 1.75% casein hydrolysate, 0.15% starch, pH 7.4). Cystobactamides and reference drugs were added directly to the cultures in sterile 96-well plates as duplicates and serial dilutions were prepared. Microorganisms were grown on a microplate shaker (750 rpm, 30-37° C., 18-48 h), except S. pneumonia, which was grown at non-shaking conditions (37° C., 5% CO2, 18 h). Growth inhibition was assessed by visual inspection and the MIC was defined as the lowest concentration of compound that inhibited visible growth.
# [2] = tested on: Burkholderia cenocepacia DSM-16553; experiment: MIC microdilution, Burkholderia cenocepacia DSM-16553; assay type: cell-based
# Experimental: as §1
# as §2, with “Cystobactamides and reference drugs were added directly to the cultures in sterile 96-well plates as duplicates and serial dilutions were prepared. Microorganisms were grown on a microplate shaker (750 rpm, 30-37° C., 18-48 h), except S. pneumonia, which was grown at non-shaking conditions (37° C., 5% CO2, 18 h).” left out
# [3] = tested on: Escherichia coli (TolC-deficient); experiment: MIC microdilution, E. coli (TolC-deficient); assay type: cell-based; settings: Escherichia coli, read-out: MIC Escherichia coli (TolC-deficient)
# Experimental: as §1
# as §2, with “Cystobactamides and reference drugs were added directly to the cultures in sterile 96-well plates as duplicates and serial dilutions were prepared. Microorganisms were grown on a microplate shaker (750 rpm, 30-37° C., 18-48 h), except S. pneumonia, which was grown at non-shaking conditions (37° C., 5% CO2, 18 h).” left out
# [4] = tested on: Enterobacter aerogenes DSM-30053; experiment: MIC microdilution, Enterobacter aerogenes DSM-30053; assay type: cell-based; settings: Klebsiella aerogenes
# Experimental: as §1
# as §2, with “Cystobactamides and reference drugs were added directly to the cultures in sterile 96-well plates as duplicates and serial dilutions were prepared. Microorganisms were grown on a microplate shaker (750 rpm, 30-37° C., 18-48 h), except S. pneumonia, which was grown at non-shaking conditions (37° C., 5% CO2, 18 h).” left out
# [5] = tested on: Pseudomonas aeruginosa PA14; experiment: MIC microdilution, P. aeruginosa PA14; assay type: cell-based; settings: Pseudomonas aeruginosa
# Experimental: as §1, §2
# [6] = tested on: Pseudomonas aeruginosa ATCC27853; experiment: MIC microdilution, P. aeruginosa ATCC27853; assay type: cell-based; settings: Pseudomonas aeruginosa
# Experimental: as §1, §2
# Bacillus subtilis DSM-10 = experiment: MIC microdilution, Bacillus subtilis DSM-10; assay type: cell-based
# Experimental: as §1
# as §2, with “Cystobactamides and reference drugs were added directly to the cultures in sterile 96-well plates as duplicates and serial dilutions were prepared. Microorganisms were grown on a microplate shaker (750 rpm, 30-37° C., 18-48 h), except S. pneumonia, which was grown at non-shaking conditions (37° C., 5% CO2, 18 h).” left out
# [7] = tested on: Enterococcus faecalis ATCC29212; experiment: MIC microdilution, Enterococcus faecalis ATCC29212; assay type: cell-based
# Experimental: as §1
# as §2, with “Cystobactamides and reference drugs were added directly to the cultures in sterile 96-well plates as duplicates and serial dilutions were prepared. Microorganisms were grown on a microplate shaker (750 rpm, 30-37° C., 18-48 h), except S. pneumonia, which was grown at non-shaking conditions (37° C., 5% CO2, 18 h).” left out
# [8] = tested on: Enterococcus faecium DSM-20477; experiment: MIC microdilution, Enterococcus faecium DSM-20477; assay type: cell-based; settings: Enterococcus faecium
# Experimental: as §1, §2
# [9] = tested on: Micrococcus luteus DSM-1790; experiment: MIC microdilution, Micrococcus luteus DSM-1790; assay type: cell-based
# Experimental: as §1
# as §2, with “Cystobactamides and reference drugs were added directly to the cultures in sterile 96-well plates as duplicates and serial dilutions were prepared. Microorganisms were grown on a microplate shaker (750 rpm, 30-37° C., 18-48 h), except S. pneumonia, which was grown at non-shaking conditions (37° C., 5% CO2, 18 h).” left out
# [10] = tested on: Streptococcus pneumoniae DSM-20566; experiment: MIC microdilution, Streptococcus pneumoniae DSM-20566; assay type: cell-based
# Experimental: as §1
# as §2, with “Cystobactamides and reference drugs were added directly to the cultures in sterile 96-well plates as duplicates and serial dilutions were prepared. Microorganisms were grown on a microplate shaker (750 rpm, 30-37° C., 18-48 h), except S. pneumonia, which was grown at non-shaking conditions (37° C., 5% CO2, 18 h).” left out
# E. coli Δtsx = experiment: MIC microdilution, E. coli Δtsx; assay type: cell-based, Escherichia coli; settings: Gram-negative set
# Experimental: as §1
# as §2, with “Cystobactamides and reference drugs were added directly to the cultures in sterile 96-well plates as duplicates and serial dilutions were prepared. Microorganisms were grown on a microplate shaker (750 rpm, 30-37° C., 18-48 h), except S. pneumonia, which was grown at non-shaking conditions (37° C., 5% CO2, 18 h).” left out
# [11] = tested on: Enterobacter cloacae DSM-30054; experiment: MIC microdilution, Enterobacter cloacae DSM-30054; assay type: cell-based; settings: Enterobacter cloacae, DSM30054, read-out: MIC Enterobacter cloacae DSM-30054
# Experimental: Dr. P. Heisig, Pharmaceutical Biology and Microbiology, University of Hamburg.
# Overnight cultures were diluted in the appropriate growth medium to achieve an inoculum of 10^4-10^6 cfu/mL. […] Cystobactamides and reference drugs were added directly to the cultures in sterile 96-well plates as duplicates and serial dilutions were prepared. Microorganisms were grown on a microplate shaker (750 rpm, 30-37° C., 18-48 h), except S. pneumonia, which was grown at non-shaking conditions (37° C., 5% CO2, 18 h). Growth inhibition was assessed by visual inspection and the MIC was defined as the lowest concentration of compound that inhibited visible growth.
# [12] = tested on: Staphylococcus aureus ATCC29213; experiment: MIC microdilution, Staphylococcus aureus ATCC29213; assay type: cell-based; settings: ATCC29213, read-out: MIC Staphylococcus aureus ATCC29213
# Experimental: as §1
# as §2, with “Cystobactamides and reference drugs were added directly to the cultures in sterile 96-well plates as duplicates and serial dilutions were prepared. Microorganisms were grown on a microplate shaker (750 rpm, 30-37° C., 18-48 h), except S. pneumonia, which was grown at non-shaking conditions (37° C., 5% CO2, 18 h).” left out
# [13] = tested on: CHO-K1 (Chinese hamster ovary cell line); experiment: Cytotoxicity (MTT), CHO-K1 cell line; assay type: cell-based; settings: Cricetulus griseus, CHO-K1, 120 h, 5 d incubation
# Experimental: CHO-K1 cells were obtained from the DSMZ and were cultured under conditions recommended by the depositor. Cells were seeded at 6×10^3 cells/well of 96-well plates in 180 μl complete medium and treated with compounds in serial dilution after 2 h of equilibration. Each sample was tested in duplicate as well as the internal DMSO control. After 5 d incubation, 20 μl of 5 mg/ml MTT (thiazolyl blue tetrazolium bromide) in PBS was added per well and it was further incubated for 2 h at 37° C. The medium was then discarded and cells were washed with 100 μl PBS before adding 100 μl 2-propanol/10 N HCl (250:1) in order to dissolve formazan granules. The absorbance at 570 nm was measured using a microplate reader (Tecan Infinite M200Pro), and cell viability was expressed as percentage relative to the respective […] control.
# E. coli gyrase = target: T1, E. coli gyrase (Escherichia coli, UniProt P0AES4+P0AES6); experiment: E. coli gyrase DNA supercoiling assay; assay type: biochemical; settings: read-out: IC50 Ec gyrase (sc)
# T1 construct: purchased Inspiralis, Norwich, UK
# Experimental: (§3) To test the anti-gyrase activity of cystobactamides, commercial E. coli and P. aeruginosa gyrase supercoiling kits (Inspiralis, Norwich, UK) were used. For standard reactions 0.5 μg relaxed plasmid were mixed with 1 unit gyrase in 1× reaction buffer (see kit manual) and incubated for 30 min at 37° C. The reactions were quenched by the addition of DNA gel loading buffer containing 10% (w/v) SDS. The samples were separated on 1% (w/v) agarose gels and DNA was visualized using EtBr. All natural products stock solutions and dilutions were prepared in 100% DMSO and added to the supercoiling reactions giving a final DMSO concentration of 2% (v/v).
# P. aeruginosa gyrase = target: T2, P. aeruginosa gyrase (Pseudomonas aeruginosa, UniProt P48372+Q9I7C2); experiment: P. aeruginosa gyrase DNA supercoiling assay; assay type: biochemical; settings: read-out: IC50 Pa gyrase (sc)
# T2 construct: purchased Inspiralis, Norwich, UK
# Experimental: as §3
# [14] = Gram-negative set, read-out: MIC P. aeruginosa DSM-24600 (ESBL)
# [15] = larger panel, read-out: MIC Pseudomonas aeruginosa DSM-24600 (ESBL)
# T2 sequence (Q9I7C2 whole entry): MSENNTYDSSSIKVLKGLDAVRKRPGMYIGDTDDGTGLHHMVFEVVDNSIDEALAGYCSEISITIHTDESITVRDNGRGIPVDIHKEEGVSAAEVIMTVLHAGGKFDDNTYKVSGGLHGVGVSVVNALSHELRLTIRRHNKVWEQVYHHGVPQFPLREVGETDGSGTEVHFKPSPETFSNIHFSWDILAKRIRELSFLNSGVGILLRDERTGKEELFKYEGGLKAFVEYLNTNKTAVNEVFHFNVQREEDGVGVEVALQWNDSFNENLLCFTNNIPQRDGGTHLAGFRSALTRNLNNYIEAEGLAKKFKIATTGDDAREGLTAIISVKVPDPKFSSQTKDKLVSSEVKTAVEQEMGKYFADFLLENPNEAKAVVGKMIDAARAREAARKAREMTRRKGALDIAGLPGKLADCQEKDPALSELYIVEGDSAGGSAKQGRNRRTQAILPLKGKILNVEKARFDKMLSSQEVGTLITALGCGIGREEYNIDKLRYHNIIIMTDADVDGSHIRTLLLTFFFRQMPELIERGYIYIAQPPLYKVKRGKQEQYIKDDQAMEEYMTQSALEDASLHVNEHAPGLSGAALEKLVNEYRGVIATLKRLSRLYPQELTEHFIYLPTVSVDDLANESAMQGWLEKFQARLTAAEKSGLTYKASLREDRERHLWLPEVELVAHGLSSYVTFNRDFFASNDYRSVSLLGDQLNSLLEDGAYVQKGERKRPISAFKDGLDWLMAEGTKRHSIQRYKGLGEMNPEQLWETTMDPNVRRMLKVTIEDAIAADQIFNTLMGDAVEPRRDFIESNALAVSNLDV
# T2 sequence (P48372 whole entry): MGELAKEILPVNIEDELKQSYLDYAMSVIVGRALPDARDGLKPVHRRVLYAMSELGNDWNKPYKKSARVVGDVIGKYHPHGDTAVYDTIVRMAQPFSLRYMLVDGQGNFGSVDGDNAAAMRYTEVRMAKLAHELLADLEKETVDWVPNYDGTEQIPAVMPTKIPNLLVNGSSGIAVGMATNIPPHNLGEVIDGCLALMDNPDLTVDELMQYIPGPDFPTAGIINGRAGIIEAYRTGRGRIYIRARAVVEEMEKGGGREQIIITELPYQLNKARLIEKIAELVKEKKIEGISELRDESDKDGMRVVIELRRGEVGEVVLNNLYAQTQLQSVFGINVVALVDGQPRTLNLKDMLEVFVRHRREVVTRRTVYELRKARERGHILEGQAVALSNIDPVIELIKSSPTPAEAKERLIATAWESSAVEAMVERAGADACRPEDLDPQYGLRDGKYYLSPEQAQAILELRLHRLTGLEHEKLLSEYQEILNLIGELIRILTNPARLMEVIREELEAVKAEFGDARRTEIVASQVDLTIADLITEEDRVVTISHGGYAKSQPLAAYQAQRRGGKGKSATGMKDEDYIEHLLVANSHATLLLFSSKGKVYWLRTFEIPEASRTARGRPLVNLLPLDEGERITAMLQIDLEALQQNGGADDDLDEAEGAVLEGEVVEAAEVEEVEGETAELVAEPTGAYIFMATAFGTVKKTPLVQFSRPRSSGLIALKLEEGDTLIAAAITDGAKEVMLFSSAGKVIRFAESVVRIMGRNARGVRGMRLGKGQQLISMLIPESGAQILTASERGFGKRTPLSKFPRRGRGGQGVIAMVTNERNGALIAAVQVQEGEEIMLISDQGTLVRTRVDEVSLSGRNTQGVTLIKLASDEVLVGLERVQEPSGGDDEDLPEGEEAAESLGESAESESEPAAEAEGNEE
# T1 sequence (P0AES4 whole entry, one chain of several): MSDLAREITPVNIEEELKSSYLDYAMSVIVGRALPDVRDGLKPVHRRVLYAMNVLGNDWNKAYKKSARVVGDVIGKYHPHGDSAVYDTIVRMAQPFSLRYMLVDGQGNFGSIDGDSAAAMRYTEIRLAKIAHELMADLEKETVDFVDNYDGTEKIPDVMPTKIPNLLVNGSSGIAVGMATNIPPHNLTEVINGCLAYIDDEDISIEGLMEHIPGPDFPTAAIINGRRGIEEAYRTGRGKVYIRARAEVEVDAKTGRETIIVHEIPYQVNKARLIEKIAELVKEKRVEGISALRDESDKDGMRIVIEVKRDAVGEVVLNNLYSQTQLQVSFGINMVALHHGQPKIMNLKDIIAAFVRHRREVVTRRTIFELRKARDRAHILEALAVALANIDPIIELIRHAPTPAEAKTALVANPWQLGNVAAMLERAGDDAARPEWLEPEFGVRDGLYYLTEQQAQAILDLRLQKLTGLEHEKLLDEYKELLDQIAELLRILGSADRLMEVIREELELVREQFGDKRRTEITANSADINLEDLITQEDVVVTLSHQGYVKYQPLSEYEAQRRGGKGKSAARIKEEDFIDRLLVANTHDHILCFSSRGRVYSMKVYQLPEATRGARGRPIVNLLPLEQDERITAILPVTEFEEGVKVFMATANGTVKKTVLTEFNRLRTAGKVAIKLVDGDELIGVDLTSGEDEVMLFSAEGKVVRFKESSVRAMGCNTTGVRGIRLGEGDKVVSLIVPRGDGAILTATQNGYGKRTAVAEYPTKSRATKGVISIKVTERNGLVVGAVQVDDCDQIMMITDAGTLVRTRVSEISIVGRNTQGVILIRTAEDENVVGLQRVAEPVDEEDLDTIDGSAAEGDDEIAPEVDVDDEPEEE
smiles,measurement,setting,value
"O=C(O)c1cn(C2CC2)c2cc(N3CCNCC3)c(F)cc2c1=O [CP, Ciprofloxacin, reference compound]",MIC,[1]; [14],3.2 µg/mL
same,MIC,[1]; [15],3.2 µg/mL
same,MIC,"[2]; DSM16553, larger panel, read-out: MIC Burkholderia cenocepacia DSM-16553",> 6.4 µg/mL
same,MIC,[3],0.01 µg/mL
same,MIC,"[4]; DSM30053, larger panel, read-out: MIC Enterobacter aerogenes DSM-30053",0.1 to 0.2 µg/mL
same,MIC,"[5]; PA14, larger panel, read-out: MIC Pseudomonas aeruginosa PA14",0.1 µg/mL
same,MIC,"[6]; ATCC27853, larger panel, read-out: MIC Pseudomonas aeruginosa ATCC27853",0.1 to 0.2 µg/mL
same,MIC,"Bacillus subtilis DSM-10; DSM10, larger panel, read-out: MIC Bacillus subtilis DSM-10",0.1 µg/mL
same,MIC,"[7]; ATCC29212, larger panel, read-out: MIC Enterococcus faecalis ATCC29212",0.8 µg/mL
same,MIC,"[8]; DSM20477, larger panel, read-out: MIC Enterococcus faecium DSM-20477",> 6.4 µg/mL
same,MIC,"[9]; DSM1790, larger panel, read-out: MIC Micrococcus luteus DSM-1790",0.8 to 1.6 µg/mL
same,MIC,"[10]; DSM20566, larger panel, read-out: MIC Streptococcus pneumoniae DSM-20566",0.8 to 1.6 µg/mL
COC(C(N)=O)C(NC(=O)c1ccc(NC(=O)c2ccc([N+](=O)[O-])cc2)cc1)C(=O)Nc1ccc(C(=O)Nc2ccc(C(=O)Nc3ccc(C(=O)O)cc3OC(C)C)c(O)c2OC(C)C)cc1 (centres unmarked) [Cys 919-2],MIC E. coli Δtsx,E. coli Δtsx,1 µg/mL
same,MIC,[1]; [14],64 µg/mL
same,MIC,[1]; [15],64 µg/mL
same,MIC,"[2]; DSM16553, read-out: MIC Burkholderia cenocepacia DSM-16553",> 64 µg/mL
same,MIC,"[4]; DSM30053, read-out: MIC Enterobacter aerogenes DSM-30053",> 64 µg/mL
same,MIC,[11],> 64 µg/mL
same,MIC,"[5]; PA14, read-out: MIC Pseudomonas aeruginosa PA14",> 64 µg/mL
same,MIC,"[6]; ATCC27853, read-out: MIC Pseudomonas aeruginosa ATCC27853",> 64 µg/mL
same,MIC,"Bacillus subtilis DSM-10; DSM10, read-out: MIC Bacillus subtilis DSM-10",0.1 µg/mL
same,MIC,"[7]; ATCC29212, read-out: MIC Enterococcus faecalis ATCC29212",0.1 µg/mL
same,MIC,"[8]; DSM20477, read-out: MIC Enterococcus faecium DSM-20477",0.25 µg/mL
same,MIC,"[9]; DSM1790, read-out: MIC Micrococcus luteus DSM-1790",0.1 to 0.2 µg/mL
same,MIC,[12],0.1 µg/mL
same,MIC,"[10]; DSM20566, read-out: MIC Streptococcus pneumoniae DSM-20566",0.1 µg/mL
same,IC50,[13],~50 µM
same,IC50,E. coli gyrase,670 nM
same,IC50,P. aeruginosa gyrase,340 nM
